Test systems include A498; ACHN; CAKI-1; COLO 205; EKVX; HCT-116; HL-60; HT-29; Hs-578T; KM12; MDA-MB-435; MDA-N; NCI-H226; OVCAR-4; OVCAR-8; RXF 393; SF-268; SK-MEL-28; T47D.
Holding throughout (experiment): NCI-60 cell line screen, 48 h

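Each compound was tested at five concentrations against cells in 96-well plates for 48 hours. Abbreviation: GI50, concentration required for 50% inhibition of growth.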 The source made the active and inactive calls. No stated cut-off is given here; in the data, active = GI50 up to about 1.1 µM and inactive = higher.

`Oc1ccc(Cc2nccc3cc(O)c(O)cc23)cc1O`: the GI50 in the experiment with A498 was 45 µM (inactive); with ACHN, 88.1 µM (inactive); in the experiment with CAKI-1, 58.3 µM (inactive); in the experiment with COLO 205 it was 21.6 µM (inactive); in the experiment on EKVX, 26.5 µM (inactive); in the experiment on HCT-116, 17.7 µM (inactive). Further, the GI50 in the experiment with HL-60 is 26.3 µM (inactive); in the experiment on HT-29 it was 53.5 µM (inactive); with Hs-578T, > 100 µM (inactive); in the experiment with KM12 it was 67.3 µM (inactive); in the experiment on MDA-MB-435, 51.3 µM (inactive); in the experiment with MDA-N it was 58.2 µM (inactive). Moreover, the GI50 in the experiment with NCI-H226 was 46.2 µM (inactive); in the experiment with OVCAR-4, 41.6 µM (inactive); with OVCAR-8 it was 45.7 µM (inactive); in the experiment on RXF 393, 37.6 µM (inactive); with SF-268 it was 51.9 µM (inactive); in the experiment on SK-MEL-28 it was 79.8 µM (inactive). The GI50 with T47D is 30.4 µM (inactive).

As for `COc1ccc(-c2cc3cc(Cl)cc(Cl)c3oc2=O)cc1OC`, the GI50 in the experiment with A498 is 79.1 µM (inactive); with ACHN it was 37.7 µM (inactive); with CAKI-1, > 100 µM (inactive); with COLO 205, > 100 µM (inactive); in the experiment on EKVX, 92.9 µM (inactive); in the experiment with HCT-116 it was 31.6 µM (inactive). The GI50 is > 100 µM (inactive) in the experiment on HL-60; 55.2 µM (inactive) in the experiment with HT-29; 31.4 µM (inactive) in the experiment on Hs-578T; 31.6 µM (inactive) in the experiment with KM12; 65 µM (inactive) in the experiment with MDA-MB-435; 94 µM (inactive) in the experiment on MDA-N. In addition, the GI50 with NCI-H226 is 43.9 µM (inactive); in the experiment with OVCAR-4, 32.8 µM (inactive); in the experiment on OVCAR-8 it was 65.8 µM (inactive); in the experiment with RXF 393 it was 19.4 µM (inactive); with SF-268 it was 43.6 µM (inactive); with SK-MEL-28 it was 94.2 µM (inactive). In addition, the GI50 in the experiment with T47D was 46.8 µM (inactive).

For `COc1cc(/C=C2\CC3C4CC[C@H]5C[C@@H](O)CC[C@]5(C)C4CC[C@]3(C)C2=O)cc(OC)c1OC` (stereo not given in full), the GI50 in the experiment on A498 is 12.1 µM (inactive); in the experiment on ACHN, 11.8 µM (inactive); with CAKI-1 it was 9.4 µM (inactive); in the experiment on COLO 205, 5.93 µM (inactive); in the experiment with EKVX, 12 µM (inactive); in the experiment with HCT-116 it was 7.19 µM (inactive). Further, the GI50 in the experiment on HL-60 was 5.75 µM (inactive); in the experiment on HT-29, 9.44 µM (inactive); in the experiment with Hs-578T it was 14.4 µM (inactive); in the experiment on KM12, 9.75 µM (inactive); in the experiment on MDA-MB-435, 13.5 µM (inactive); with MDA-N, 19.9 µM (inactive). Moreover, the GI50 is 13.6 µM (inactive) with NCI-H226; 4.61 µM (inactive) in the experiment on OVCAR-4; 15.8 µM (inactive) in the experiment on OVCAR-8; 13.9 µM (inactive) in the experiment with RXF 393; 24 µM (inactive) in the experiment with SF-268; 32.7 µM (inactive) in the experiment with SK-MEL-28. Moreover, the GI50 in the experiment with T47D was 3.7 µM (inactive).

With `CC(=O)O[C@H]1C[C@H]2[C@@H]([C@H](OC(C)=O)C[C@@H]3CC4(CC[C@@]32C)OOC2(CCCCC2)OO4)[C@@H]2CC[C@H]([C@H](C)CCC(=O)O)[C@@]12C`, the GI50 in the experiment with A498 was 13.3 µM (inactive); in the experiment with ACHN it was 7.24 µM (inactive); with CAKI-1 it was 7.1 µM (inactive); with COLO 205 it was 3.91 µM (inactive); in the experiment with EKVX, 1.95 µM (inactive); with HCT-116, 5.81 µM (inactive). In addition, the GI50 is 4.15 µM (inactive) with HL-60; 11.5 µM (inactive) in the experiment with HT-29; 2.42 µM (inactive) with Hs-578T; 3.56 µM (inactive) with KM12; 5.75 µM (inactive) in the experiment with MDA-MB-435; 8.75 µM (inactive) in the experiment on MDA-N. The GI50 in the experiment on NCI-H226 is 7.29 µM (inactive); with OVCAR-4, 2.55 µM (inactive); in the experiment with OVCAR-8, 4.08 µM (inactive); in the experiment on RXF 393, 13.5 µM (inactive); in the experiment on SF-268, 6.81 µM (inactive); in the experiment on SK-MEL-28, 11.4 µM (inactive). For the same compound, the GI50 with T47D is 7 µM (inactive).

With `CCN(CC)CC1CCCCN1CC(=O)N1c2ccccc2NC(=O)CC1C` (stereo not given), the GI50 with A498, in the experiment with ACHN, in the experiment with CAKI-1, in the experiment on COLO 205, in the experiment with EKVX and in the experiment with HCT-116 was > 100 µM (inactive) each time. Besides, the GI50 in the experiment with HL-60, with HT-29, in the experiment on Hs-578T, in the experiment with KM12, with MDA-MB-435 and with MDA-N was > 100 µM (inactive) each time. The GI50 in the experiment on NCI-H226, with OVCAR-4, in the experiment with OVCAR-8, in the experiment with RXF 393, with SF-268 and with SK-MEL-28 was > 100 µM (inactive) throughout. Further, the GI50 with T47D is > 100 µM (inactive).

With `C/C(=N\N=C(\N)OB(F)F)c1ccccn1`, the GI50 with A498 was > 100 µM (inactive); in the experiment on ACHN, 81.1 µM (inactive); with CAKI-1 it was > 100 µM (inactive); in the experiment on COLO 205, > 100 µM (inactive); in the experiment on EKVX it was 18.5 µM (inactive); in the experiment on HCT-116, 58.5 µM (inactive). Also, the GI50 with HL-60 was 63.5 µM (inactive); with HT-29 it was 47.3 µM (inactive); in the experiment with Hs-578T it was 28.6 µM (inactive); with KM12, > 100 µM (inactive); in the experiment with MDA-MB-435 it was > 100 µM (inactive); in the experiment with MDA-N, 71.9 µM (inactive). In addition, the GI50 in the experiment with NCI-H226 was 40.8 µM (inactive); in the experiment on OVCAR-4 it was 35 µM (inactive); with OVCAR-8, 75 µM (inactive); in the experiment with RXF 393, 9.33 µM (inactive); in the experiment with SF-268, > 100 µM (inactive); with SK-MEL-28, > 100 µM (inactive). The GI50 with T47D was > 100 µM (inactive).

Regarding `O=C(/C=C/c1ccc(OCc2ccccc2)cc1)NCc1ccc(C(=O)NCCc2c[nH]c3ccccc23)cc1`, the GI50 is 38.9 µM (inactive) in the experiment with A498; 36.5 µM (inactive) with ACHN; 9.18 µM (inactive) in the experiment on CAKI-1; > 75.5 µM (inactive) in the experiment with COLO 205; > 87.1 µM (inactive) in the experiment with EKVX; 15.4 µM (inactive) in the experiment with HCT-116. Besides, the GI50 in the experiment with HL-60 is 6.22 µM (inactive); in the experiment with HT-29 it was 4.33 µM (inactive); in the experiment on Hs-578T, 6.35 µM (inactive); in the experiment with KM12, 63.8 µM (inactive); with MDA-MB-435 it was > 57.3 µM (inactive); in the experiment with MDA-N, > 100 µM (inactive). Also, the GI50 was > 34.6 µM (inactive) in the experiment with NCI-H226; 7.76 µM (inactive) in the experiment with OVCAR-4; 6.76 µM (inactive) in the experiment on OVCAR-8; 7.06 µM (inactive) in the experiment with RXF 393; 11.1 µM (inactive) with SF-268; 74.5 µM (inactive) with SK-MEL-28. For the same compound, in the experiment with T47D, the GI50 was 30.4 µM (inactive).

In the case of `CCCC(=O)NC1=C(Cl)C(=O)c2ccccc2C1=O`, the GI50 in the experiment on A498 was 13.3 µM (inactive); in the experiment on ACHN, 1.73 µM (inactive); with CAKI-1, 3 µM (inactive); with COLO 205, 1.89 µM (inactive); in the experiment with EKVX, 3.72 µM (inactive); with HCT-116, 1.73 µM (inactive). The GI50 in the experiment with HL-60 is 0.145 µM (active); in the experiment on HT-29, 8.49 µM (inactive); in the experiment with Hs-578T, 5.25 µM (inactive); with KM12 it was 3.01 µM (inactive); with MDA-MB-435 it was 3.42 µM (inactive); in the experiment with MDA-N, 4.11 µM (inactive). Moreover, the GI50 with NCI-H226 was 7.78 µM (inactive); in the experiment on OVCAR-4, 4.51 µM (inactive); with OVCAR-8 it was 5.02 µM (inactive); with RXF 393, 1.15 µM (inactive); in the experiment on SF-268, 6.92 µM (inactive); in the experiment on SK-MEL-28 it was 4.33 µM (inactive). In addition, the GI50 in the experiment with T47D is 2.25 µM (inactive).

As for `COC(=O)CCC(C)[C@H]1CCC2C3C(C[C@H](OC(C)=O)[C@@]21C)[C@@]1(C)CCC2(C[C@H]1C[C@H]3OC(C)=O)OOC1(CCCCCCC1)OO2` (stereo not given in full), the GI50 in the experiment with A498 is > 100 µM (inactive); in the experiment on ACHN, 4.09 µM (inactive); in the experiment on CAKI-1, 2.55 µM (inactive); in the experiment with COLO 205, 7.62 µM (inactive); in the experiment with EKVX, 1.36 µM (inactive); with HCT-116, 2.74 µM (inactive). Further, the GI50 in the experiment on HL-60 was 4.3 µM (inactive); in the experiment with HT-29, 9.08 µM (inactive); in the experiment on Hs-578T it was 4.05 µM (inactive); with KM12 it was 4.88 µM (inactive); in the experiment with MDA-MB-435, 18.4 µM (inactive); in the experiment with MDA-N, > 100 µM (inactive). For the same compound, the GI50 in the experiment on NCI-H226 was 6.79 µM (inactive); in the experiment on OVCAR-4 it was 39 µM (inactive); with OVCAR-8, 4.82 µM (inactive); with RXF 393 it was > 100 µM (inactive); in the experiment with SF-268, 6.27 µM (inactive); with SK-MEL-28, > 100 µM (inactive). Moreover, the GI50 with T47D was 2.02 µM (inactive).

As to `CC(C)=CCc1[nH]c2ccccc2c1C1=C(O)C(=O)C(c2c(CC=C(C)C)[nH]c3ccccc23)=C(O)C1=O`, the GI50 in the experiment with A498 was 1.21 µM (inactive); in the experiment with ACHN it was 1.56 µM (inactive); in the experiment on CAKI-1, 1.73 µM (inactive); in the experiment on COLO 205 it was 1.63 µM (inactive); in the experiment on EKVX, 2.19 µM (inactive); in the experiment on HCT-116, 1.5 µM (inactive). Further, the GI50 is 2.19 µM (inactive) in the experiment with HL-60; 2.22 µM (inactive) in the experiment with HT-29; 1.04 µM (active) with Hs-578T; 1.04 µM (active) with KM12; 0.608 µM (active) in the experiment on MDA-MB-435; 1.04 µM (active) in the experiment with MDA-N. In addition, the GI50 in the experiment with NCI-H226 is 1.73 µM (inactive); with OVCAR-4 it was 3.58 µM (inactive); in the experiment on OVCAR-8 it was 1.53 µM (inactive); with RXF 393, 1.75 µM (inactive); with SF-268, 0.409 µM (active); in the experiment on SK-MEL-28, 0.757 µM (active). Further, the GI50 in the experiment with T47D was 2.76 µM (inactive).

Source of the values: ChEMBL document CHEMBL1201862, “PubChem BioAssay data set” (2004).
